Data as given in PubChem BioAssay AID1259407 (Chemical Carcinogenesis Research Information System (CCRIS), 2018).
Calls of active or inactive are those of the source. The rule behind the calls is not given here.

Test system: CCRIS mutagenicity, Ames/micronucleus/aberration tests
Test: CCRIS mutagenicity studies
[1] = Test System: AMES SALMONELLA TYPHIMURIUM, Strain/Indicator: TA1537, Metabolic Activation: NONE, Method: STANDARD PLATE
[2] = Test System: AMES SALMONELLA TYPHIMURIUM, Strain/Indicator: TA98, Metabolic Activation: NONE, Method: STANDARD PLATE
[3] = Test System: AMES SALMONELLA TYPHIMURIUM, Strain/Indicator: TA98, Metabolic Activation: RAT, LIVER, S-9, AROCLOR 1254, Method: STANDARD PLATE
[4] = Test System: AMES SALMONELLA TYPHIMURIUM, Strain/Indicator: TA100, Metabolic Activation: NONE, Method: STANDARD PLATE
[5] = Test System: AMES SALMONELLA TYPHIMURIUM, Strain/Indicator: TA100, Metabolic Activation: RAT, LIVER, S-9, AROCLOR 1254, Method: STANDARD PLATE
[6] = Test System: AMES SALMONELLA TYPHIMURIUM, Strain/Indicator: TA1535, Metabolic Activation: NONE, Method: STANDARD PLATE
[7] = Test System: AMES SALMONELLA TYPHIMURIUM, Strain/Indicator: TA1535, Metabolic Activation: RAT, LIVER, S-9, AROCLOR 1254, Method: STANDARD PLATE
[8] = Test System: AMES SALMONELLA TYPHIMURIUM, Strain/Indicator: TA1537, Metabolic Activation: RAT, LIVER, S-9, AROCLOR 1254, Method: STANDARD PLATE
[9] = Test System: AMES SALMONELLA TYPHIMURIUM, Strain/Indicator: TA1538, Metabolic Activation: NONE, Method: STANDARD PLATE
[10] = Test System: AMES SALMONELLA TYPHIMURIUM, Strain/Indicator: TA1538, Metabolic Activation: RAT, LIVER, S-9, AROCLOR 1254, Method: STANDARD PLATE

Measured: mutagenic call

CC1(c2ccc(Oc3ccccc3)cc2)OC(=O)N(Nc2ccccc2)C1=O (stereo unspecified)
inactive: End Point: In vitro chromosomal aberrations, Test System: Human (male and female) lymphocytes, Metabolic Activation: None inactive; negative | End Point: In vitro chromosomal aberrations, Test System: Human (male and female) lymphocytes, Metabolic Activation: S-9 inactive; negative | End Point: In vivo micronucleus, Test System: Bone marrow polychromatic erythrocytes, Species: Mouse, Strain/Sex: Crl:CD-1(ICR)BR/Male and female inactive; negative | End Point: UDS, Species: Rat, Strain/Sex: Sprague-Dawley Crl:CD BR/Male, Route: Oral inactive; negative | Test System: Ames Salmonella typhimurium, Strain/Indicator: TA97, Metabolic Activation: None, Method: Plate incorporation inactive; negative | Test System: Ames Salmonella typhimurium, Strain/Indicator: TA97, Metabolic Activation: Rat, Liver, S-9, Method: Plate incorporation inactive; negative | Test System: Ames Salmonella typhimurium, Strain/Indicator: TA98, Metabolic Activation: None, Method: Plate incorporation inactive; negative | Test System: Ames Salmonella typhimurium, Strain/Indicator: TA98, Metabolic Activation: Rat, Liver, S-9, Method: Plate incorporation inactive; negative | Test System: Ames Salmonella typhimurium, Strain/Indicator: TA100, Metabolic Activation: None, Method: Plate incorporation inactive; negative | Test System: Ames Salmonella typhimurium, Strain/Indicator: TA100, Metabolic Activation: Rat, Liver, S-9, Method: Plate incorporation inactive; negative | Test System: Ames Salmonella typhimurium, Strain/Indicator: TA1535, Metabolic Activation: None, Method: Plate incorporation inactive; negative | Test System: Ames Salmonella typhimurium, Strain/Indicator: TA1535, Metabolic Activation: Rat, Liver, S-9, Method: Plate incorporation inactive; negative | Test System: Chinese hamster ovary cells, Strain/Indicator: CHO-K1-BH4 (HGPRT), Metabolic Activation: None, Method: Suspension/plate? inactive; negative | Test System: Chinese hamster ovary cells, Strain/Indicator: CHO-K1-BH4 (HGPRT), Metabolic Activation: Rat, Liver, S-9, Method: Suspension/plate? inactive; negative | Test System: E. coli, Strain/Indicator: WP2 uvrA (pKM101), Metabolic Activation: None, Method: Plate incorporation inactive; negative | Test System: E. coli, Strain/Indicator: WP2 uvrA (pKM101), Metabolic Activation: Rat, Liver, S-9, Method: Plate incorporation inactive; negative

Oc1cc(Cl)c(O)cc1Cl
inactive: Test System: AMES SALMONELLA TYPHIMURIUM, Strain/Indicator: TA98, Metabolic Activation: NONE inactive; negative | Test System: AMES SALMONELLA TYPHIMURIUM, Strain/Indicator: TA98, Metabolic Activation: RAT, LIVER, S-9, AROCLOR 1254 inactive; negative | Test System: AMES SALMONELLA TYPHIMURIUM, Strain/Indicator: TA100, Metabolic Activation: NONE inactive; negative | Test System: AMES SALMONELLA TYPHIMURIUM, Strain/Indicator: TA100, Metabolic Activation: RAT, LIVER, S-9, AROCLOR 1254 inactive; negative | Test System: AMES SALMONELLA TYPHIMURIUM, Strain/Indicator: TA102, Metabolic Activation: NONE inactive; negative | Test System: AMES SALMONELLA TYPHIMURIUM, Strain/Indicator: TA102, Metabolic Activation: RAT, LIVER, S-9, AROCLOR 1254 inactive; negative | Test System: AMES SALMONELLA TYPHIMURIUM, Strain/Indicator: TA104, Metabolic Activation: NONE inactive; negative | Test System: AMES SALMONELLA TYPHIMURIUM, Strain/Indicator: TA104, Metabolic Activation: RAT, LIVER, S-9, AROCLOR 1254 inactive; negative

CN(C)CCNC(=O)c1ccc2c(N)c3ccccc3nc2c1
inactive: [1] inactive; negative

C=CCc1ccc(O)cc1
inactive: Test System: AMES SALMONELLA TYPHIMURIUM, Strain/Indicator: TA98, Metabolic Activation: HAMSTER, LIVER, S-9, AROCLOR 1254, Method: STANDARD PLATE inactive; negative | [2] inactive; negative | [3] inactive; negative | Test System: AMES SALMONELLA TYPHIMURIUM, Strain/Indicator: TA100, Metabolic Activation: HAMSTER, LIVER, S-9, AROCLOR 1254, Method: STANDARD PLATE inactive; negative | [4] inactive; negative | [5] inactive; negative | Test System: AMES SALMONELLA TYPHIMURIUM, Strain/Indicator: TA1535, Metabolic Activation: HAMSTER, LIVER, S-9, AROCLOR 1254, Method: STANDARD PLATE inactive; negative | [6] inactive; negative | [7] inactive; negative | Test System: AMES SALMONELLA TYPHIMURIUM, Strain/Indicator: TA1537, Metabolic Activation: HAMSTER, LIVER, S-9, AROCLOR 1254, Method: STANDARD PLATE inactive; negative | [1] inactive; negative | [8] inactive; negative | Test System: AMES SALMONELLA TYPHIMURIUM, Strain/Indicator: TA1538, Metabolic Activation: HAMSTER, LIVER, S-9, AROCLOR 1254, Method: STANDARD PLATE inactive; negative | [9] inactive; negative | [10] inactive; negative | Test System: MOUSE LYMPHOMA, Strain/Indicator: L5178Y (TK+/TK-), Metabolic Activation: NONE, Method: SUSPENSION/PLATE inactive; negative. reevaluation of results: negative | Test System: MOUSE LYMPHOMA, Strain/Indicator: L5178Y (TK+/TK-), Metabolic Activation: RAT, LIVER, S-9, AROCLOR 1254, Method: SUSPENSION/PLATE inactive; negative. reevaluation of results: negative

Oc1ccc2c(O)c3ccccc3cc2c1O
active: [1] active; positive
inactive: [3] inactive; negative | [4] inactive; negative | [5] inactive; negative | [6] inactive; negative | [7] inactive; negative | [9] inactive; negative | [10] inactive; negative

Cc1cccc2cccc([N+](=O)[O-])c12
active: Test System: AMES SALMONELLA TYPHIMURIUM, Strain/Indicator: TA98, Metabolic Activation: NONE, Method: PREINCUBATION active; positive

CC(C)CN(N=O)C(N)=O
active: Test System: E. COLI B, Strain/Indicator: H/R30R, Metabolic Activation: NONE active; positive | Test System: E. COLI B, Strain/Indicator: HS30R, Metabolic Activation: NONE active; positive

O=C1C=C[C@]2(O)c3c(ccc(O)c31)-c1ccc(O)c3c1[C@H]2C1OC1C3=O (stereo partly specified)
active: [2] active; positive | [3] active; positive | [4] active; positive | [5] active; positive | [1] active; positive | [8] active; positive
inactive: [6] inactive; negative | [7] inactive; negative
